Source: patent publication US20090203892A1, “Retrotransposon Inhibition in Therapy” (ISTITUTO SUPERIORE DI SANITA, priority 2004, published 2009)

Experiments:
[1] = tested on: endogenous RT; settings: non-infected cells in vitro (ref. 19); cited from earlier work
[2] = tested on: H69 small cell lung carcinoma xenograft; assay: Human tumor xenograft growth in athymic nude mice; assay type: in vivo; settings: 20 mg/kg s.c. daily five days a week, start one day or one week after inoculation; vs untreated
Procedure: (§1) Controls were injected with 50% DMSO.

[3] = tested on: PC3 xenograft; assay: Human tumor xenograft growth in athymic nude mice; assay type: in vivo
Procedure: as §1

[4] = tested on: A-375 melanoma xenograft; assay: Human tumor xenograft growth in athymic nude mice; assay type: in vivo; settings: 20 mg/kg s.c. daily five days a week, start one day or one week after inoculation; vs untreated
Procedure: as §1

[5] = tested on: HT29 colon xenograft; assay: Human tumor xenograft growth in athymic nude mice; assay type: in vivo
Procedure: as §1

[6] = tested on: PC3 prostate cancer cells; assay: Tumorigenicity of efavirenz-pretreated PC3 cells inoculated in nude mice; assay type: in vivo
Procedure: as §1
We also investigated whether pretreatment of transformed cells with efavirenz would modify the tumorigenic potential of derived xenografts. PC3 prostate cancer cells were cultured with 20 μM efavirenz for two 96 h-cycles, a time that was sufficient for induction of the PSA and AR genes (FIG. 3B), and subsequently inoculated in nude mice.
Untreated cells were inoculated in parallel batches of animals. Efavirenz-pretreated, or untreated, PC3 cell xenografts were then either continuously treated with efavirenz in vivo or were left untreated. […] As summarized in FIG. 6 B, efavirenz-pretreated PC3 cells developed slowly-growing xenografts in 65% of the inoculated animals, compared to 100% using untreated cells. […] Thus, efavirenz attenuates the tumorigenic potential of transformed cells.

[7] = tested on: PC3 prostate carcinoma; assay: Cell growth under prolonged exposure to RT inhibitors; assay type: cell-based, Human; settings: for reversibility of growth inhibition: after removal of RT inhibitors, within one or two 96 h-cycles; for cell growth: nevirapine 350 μM, efavirenz 15 μM, five 96 h-cycles
Procedure: (§2) Human A-375 melanoma (ATCC-CRL-1619), TVM-A12 primary melanoma-derived (20), HT29 adenocarcinoma (ATCC HTB-38), H69 small cell lung carcinoma (SCLC) (ATCC HTB119), and PC3 prostate carcinoma (ATCC CRL-1435) cell lines were seeded in six-well plates at a density of 10^4 to 5×10^4 cells/well and cultured in DMEM or RPMI1640 medium with 10% fetal bovine serum. Nevirapine and Efavirenz were purified from commercially available Viramune (Boehringer-Ingelheim) and Sustiva (Bristol-Myers Squibb) as described (18). The drugs were made 350 and 15 μM in dimethyl sulfoxide (DMSO, Sigma-Aldrich), respectively, and added to cells 5 h after seeding; the same DMSO volume (0.2% final concentration) was added to controls. Fresh RT inhibitor-containing medium was changed every 48 h. Cells were harvested every 96 h, counted in a Burker chamber (two countings/sample) and replated at the same density.

[8] = tested on: TVM-A12 primary melanoma-derived cell line; assay: as above; assay type: cell-based, Human; settings: for reversibility of growth inhibition: after removal of RT inhibitors, within one or two 96 h-cycles; for cell growth: nevirapine 350 μM, efavirenz 15 μM, five 96 h-cycles
Procedure: as §2

[9] = tested on: A-375 melanoma; assay: as above; assay type: cell-based, Human; settings: for reversibility of growth inhibition: after removal of RT inhibitors, within one or two 96 h-cycles; for cell growth: nevirapine 350 μM, efavirenz 15 μM, five 96 h-cycles
Procedure: as §2

[10] = tested on: E-cadherin, c-myc, bcl-2 and cyclin D1 genes in A-375 melanoma cells; assay: Gene expression by semiquantitative RT-PCR in RT-inhibited cultures; assay type: cell-based, Human; settings: four cycles, compared to controls
Procedure: Each oligo pair was used in sequential amplification series with increasing numbers (25 to 40) of cycles. PCR products were electrophoresed, transferred to membranes and hybridized for 16 h at 42 C.° with [^32P]γ-ATP end-labelled internal oligonucleotides. The intensity of the amplification signal was measured by densitometry in at least three independent experiments for each gene. [table] […] This was investigated in semiquantitative RT-PCR analysis of cultures treated with DMSO only, or nevirapine or efavirenz for four cycles. In A-375 melanoma cells, we focussed on a set of four genes: the E-cadherin gene, involved in cell-cell adhesion and expressed in differentiated but not in tumor cells (24); and the c-myc, bcl-2 (25) and cyclin D1 (26) genes, which are directly implicated in melanoma cell proliferation and tumor growth.

[11] = Preliminary in vivo assays of RT inhibitors
[12] = tested on: A-375 melanoma cells; assay: Morphological differentiation (phase contrast, SEM, confocal microscopy); assay type: cell-based, Human; settings: compared to DMSO-treated controls
Procedure: (§3) A-375 and TVM-A12 cells were fixed with 4% para-formaldehyde for 10 min and permeabilized in 0.2% Triton-X 100 in PBS for 5 min. […] Confocal sections were taken at 0.5-1 μm intervals. A-375 and TVM-A12 cells were fixed in 2.5% glutaraldehyde in 0.1 M Millonig's phosphate buffer. After washing, cells were post-fixed with 1% OsO4 (1 h, 4° C.) in MPB and dehydrated using increasing acetone concentrations. Samples were critical-point dried using liquid CO2 and sputter-coated with gold before examination on a Stereoscan 240 scanning electron microscope (Cambridge Instr., Cambridge, UK).

[13] = Procedure: Five-week old athymic nude mice (Harlan, Italy), kept in accordance with the European Union guidelines, were inoculated sub-cutaneously with A-375 melanoma (4×10^6), H-69 (10^7), PC3 (2×10^6) and HT-29 (10^6) cells in 100 μl PBS. […] Controls were injected with 50% DMSO. Treatment started one day or one week after tumor implant, and, in some experiments, was discontinued after 14 days. Tumor growth was monitored every other day by caliper measurements; volumes were calculated using the formula: […]
Cells were inoculated subcutaneously in the limb of athymic nude mice.

[14] = tested on: primary TVM-A12 cells; assay: Morphological differentiation (phase contrast, SEM, confocal microscopy); assay type: cell-based, Human; settings: compared to untreated cells
Procedure: as §3

[15] = 20 mg/kg s.c. daily five days a week, start one day or one week after inoculation, vs untreated
[16] = treated from day one, treatment discontinuation after day 15

Row | SMILES | inhibition of the enzymatic activity of the endogenous RT [1] | reversibility of growth inhibition [7] | cell growth [7] | reversibility of growth inhibition [8] | cell growth [8] | reversibility of growth inhibition [9] | cell growth [9] | morphological differentiation [12] | further results
1 | O=C1Nc2ccc(Cl)cc2[C@@](C#CC2CC2)(C(F)(F)F)O1 [efavirenz, Efavirenz] | inhibit the enzymatic activity of the endogenous RT | reversible | effectively reduce cell growth | reversible | effectively reduce cell growth | reversible | effectively reduce cell growth | became evident within four-five days | tumor growth [2]: markedly reduced; tumor growth [3, 15]: markedly reduced; reversibility of inhibition of tumor growth [3, 16]: reversible in vivo; tumor growth [4]: markedly reduced; tumor growth [5, 15]: markedly reduced; reversibility of inhibition of tumor growth [5, 16]: reversible in vivo; inoculated animals developing xenografts ([6]; cells pretreated with 20 μM efavirenz for two 96 h-cycles, no treatment in vivo, 100% using untreated cells, 30 days): 65 % of the inoculated animals; xenograft growth ([6]; efavirenz-pretreated cells, no treatment in vivo): xenografts grew more slowly; xenograft growth ([6]; pretreated cells and further treated with efavirenz in vivo): the growth curve was flat; animals developing a tumor ([6]; pretreated cells and further treated with efavirenz in vivo, 30 days): 40 % of the animals; expression of the cyclin D1 gene [10]: failed to down-regulate cyclin D1 expression; in vivo effectiveness relative to nevirapine [11]: higher in vivo effectiveness than nevirapine; animal death or signs of toxicity ([13]; 4 to 40 mg/kg, all animal groups): no animal death or explicit signs of toxicity in any of the groups; animals with significant decrease of body weight ([13]; group treated with 40 mg/kg): more than 60 % of animals
2 | Cc1ccnc2c1NC(=O)c1cccnc1N2C1CC1 [nevirapine, Nevirapine] | inhibit the enzymatic activity of the endogenous RT | reversible | effectively reduce cell growth | reversible | effectively reduce cell growth | reversible | effectively reduce cell growth | became evident within four-five days | morphological differentiation [14]: formed instead typical branched dendrites
